Experimental data as given in patent publication EP3623369A1, “NOVEL MORPHOLINYL AMINE COMPOUNDS FOR THE TREATMENT OF AUTOIMMUNE DISEASE” (F. Hoffmann-La Roche AG, priority 2018, dated 2020).

Biological target: T1, human TLR8 (Homo sapiens, UniProt Q9NR97)
T1 sequence (Q9NR97 27-1041): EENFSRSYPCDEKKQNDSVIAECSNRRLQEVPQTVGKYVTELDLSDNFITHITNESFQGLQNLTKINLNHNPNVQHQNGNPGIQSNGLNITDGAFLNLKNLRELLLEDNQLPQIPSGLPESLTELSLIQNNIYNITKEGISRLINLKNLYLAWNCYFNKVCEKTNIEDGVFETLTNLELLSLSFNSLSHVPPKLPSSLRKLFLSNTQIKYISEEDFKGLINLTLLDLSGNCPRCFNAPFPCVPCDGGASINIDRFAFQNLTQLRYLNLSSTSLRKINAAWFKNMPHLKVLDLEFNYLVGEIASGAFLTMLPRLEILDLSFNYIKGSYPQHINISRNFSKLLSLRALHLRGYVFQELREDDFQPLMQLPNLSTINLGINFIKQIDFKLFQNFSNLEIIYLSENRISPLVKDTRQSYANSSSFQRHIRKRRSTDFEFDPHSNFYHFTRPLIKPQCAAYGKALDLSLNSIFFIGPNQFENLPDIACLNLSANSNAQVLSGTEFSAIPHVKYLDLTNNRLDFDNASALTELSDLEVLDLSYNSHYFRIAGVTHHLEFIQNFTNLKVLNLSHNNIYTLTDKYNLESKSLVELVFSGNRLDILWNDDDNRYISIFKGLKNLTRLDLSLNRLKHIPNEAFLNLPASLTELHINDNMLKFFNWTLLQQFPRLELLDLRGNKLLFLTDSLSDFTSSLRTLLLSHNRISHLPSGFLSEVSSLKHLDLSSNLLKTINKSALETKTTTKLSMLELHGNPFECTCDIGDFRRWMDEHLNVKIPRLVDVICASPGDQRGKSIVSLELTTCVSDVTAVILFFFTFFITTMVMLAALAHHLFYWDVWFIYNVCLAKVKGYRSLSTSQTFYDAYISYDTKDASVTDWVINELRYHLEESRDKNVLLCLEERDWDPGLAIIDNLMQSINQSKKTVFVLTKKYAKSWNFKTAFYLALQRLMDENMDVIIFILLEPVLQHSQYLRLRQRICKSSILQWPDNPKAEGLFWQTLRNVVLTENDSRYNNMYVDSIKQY
Experiment: HEK293-Blue-hTLR-8 cells assay (SEAP reporter, R848 stimulation)
Format: cell-based
Settings: HEK293-Blue-hTLR8 cells, R848, 20 hrs; 0.003 is the lowest tested concentration; read-out: HEK/hTLR8 IC50
Experimental: The following tests were carried out in order to determine the activity of the compounds of formula (I) or (Ia) in HEK293-Blue-hTLR-7/8/9 cells assay.
HEK293-Blue-hTLR-8 cells assay:
A stable HEK293-Blue-hTLR-8 cell line was purchased from InvivoGen (Cat.#: hkb-htlr8, San Diego, California, USA). These cells were originally designed for studying the stimulation of human TLR8 by monitoring the activation of NF-κB. A SEAP (secreted embryonic alkaline phosphatase) reporter gene was placed under the control of the IFN-β minimal promoter fused to five NF-κB and AP-1-binding sites. The SEAP was induced by activating NF-κB and AP-1 via stimulating HEK-Blue hTLR8 cells with TLR8 ligands. Therefore the reporter expression was declined by TLR8 antagonist under the stimulation of a ligand, such as R848, for incubation of 20 hrs. The cell culture supernatant SEAP reporter activity was determined using QUANTI-Blue™ kit (Cat.#: rep-qb1, Invivogen, San Diego, Ca, USA) at a wavelength of 640 nm, a detection medium that turns purple or blue in the presence of alkaline phosphatase.
HEK293-Blue-hTLR8 cells were incubated at a density of 250,000∼450,000 cells/mL in a volume of 170 µL in a 96-well plate in Dulbecco's Modified Eagle's medium (DMEM) containing 4.5 g/L glucose, 50 U/mL penicillin, […], […], 2 mM L-glutamine, 10% (v/v) heat-inactivated fetal bovine serum with addition of 20 µL test compound in a serial dilution in the presence of final DMSO at 1% and 10 µL of 60uM R848 in above DMEM, perform incubation under 37 °C in a CO2 incubator for 20 hrs. Then 20 µL of the supernatant from each well was incubated with 180 µL Quanti-blue substrate solution at 37°C for 2 hrs and the absorbance was read at 620∼655 nm using a spectrophotometer. The signalling pathway that TLR8 activation leads to downstream NF-κB activation has been widely accepted, and therefore similar reporter assay was modified for evaluating TLR8 antagonist.

Row | SMILES | IC50
1 | C[C@@H]1CN(c2ccc3c(c2)CN(C[C@H]2CN(c4ccc(C#N)c5nccnc45)C[C@@H](C)O2)C3)CCN1 [Example 65, 8-[(2R,6S)-2-methyl-6-[[5-[(3R)-3-methylpiperazin-1-yl]isoindolin-2-yl]methyl]morpholin-4-yl] quinoxaline-5-carbonitrile] | < 3 nM
2 | C[C@@H]1CN(c2ccc(C#N)c3nccnc23)C[C@H](CN2Cc3ccc(N4CCN[C@@H](C)C4)cc3C2)O1 [Example 66, 8-[(2R,6S)-2-methyl-6-[[5-[(3S)-3-methylpiperazin-1-yl]isoindolin-2-yl]methyl]morpholin-4-yl]quinoxaline-5-carbonitrile] | < 3 nM
3 | COC(=O)C1CN(c2ccc3c(c2)CN(C[C@H]2CN(c4ccc(C#N)c5ncccc45)C[C@@H](C)O2)C3)CCN1 (stereo partly drawn) [Example 67, Methyl 4-[2-[[(2S,6R)-4-(8-cyano-5-quinolyl)-6-methyl-morpholin-2-yl]methyl]isoindolin-5-yl] piperazine-2-carboxylate] | 36 nM
4 | C[C@@H]1CN(c2ccc(C#N)c3ncccc23)C[C@H](CN2Cc3cc(N4CCN(C)CC4)cc(F)c3C2)O1 [Example 69, 5-[(2S,6R)-2-[[4-fluoro-6-(4-methylpiperazin-1-yl)isoindolin-2-yl]methyl]-6-methyl-morpholin-4-yl]quinoline-8-carbonitrile] | < 3 nM
5 | C[C@@H]1CN(c2ccc(C#N)c3ncccc23)C[C@H](CN2CCc3cc(N4CCNCC4)ncc3C2)O1 [Example 70, 5-[(2R,6S)-2-methyl-6-[(6-piperazin-1-yl-3,4-dihydro-1H-2,7-naphthyridin-2-yl)methyl]morpholin-4-yl]quinoline-8-carbonitrile] | < 3 nM
6 | C[C@@H]1CN(c2ccc3c(c2)CN(C[C@H]2CN(c4ccc(C#N)c5ncccc45)C[C@@H](C)O2)C3)C[C@H](C)N1 [Example 71, 5-[(2R,6S)-2-methyl-6-[[5-[(3R,5S)-3,5-dimethylpiperazin-1-yl]isoindolin-2-yl]methyl]morpholin-4-yl]quinoline-8-carbonitrile] | 6 nM
7 | C[C@@H]1CN(c2ccc(C#N)c3ncccc23)C[C@H](CN2Cc3ccc(N4CC5COCC(C4)N5)cc3C2)O1 [Example 72, 5-[(2R,6S)-2-methyl-6-[[5-(3-oxa-7,9-diazabicyclo[3.3.1]nonan-7-yl)isoindolin-2-yl]methyl]morpholin-4-yl]quinoline-8-carbonitrile] | 9 nM
8 | C[C@@H]1CN(c2ccc(C#N)c3ncccc23)C[C@H](CN2Cc3ccc(N4CCNCC4CO)cc3C2)O1 (stereo partly drawn) [Example 73, 5-[(2S,6R)-2-[[5-[2-(hydroxymethyl)piperazin-1-yl]isoindolin-2-yl]methyl]-6-methyl-morpholin-4-yl]quinoline-8-carbonitrile] | 10 nM
9 | C[C@@H]1CN(c2ccc(C#N)c3ncccc23)C[C@H](CN2Cc3ccc(CN4CCCCC4)cc3C2)O1 [Example 74, 5-[(2R,6S)-2-methyl-6-[[5-(1-piperidylmethyl)isoindolin-2-yl]methyl]morpholin-4-yl]quinoline-8-carbonitrile] | < 3 nM
10 | C[C@@H]1CN(c2ccc(C#N)c3ncccc23)C[C@H](CN2Cc3ccc(N4CCNCC4)cc3C(O)C2)O1 (stereo partly drawn) [Example 75, 5-[(2S,6R)-2-[(4-hydroxy-6-piperazin-1-yl-3,4-dihydro-1H-isoquinolin-2-yl)methyl]-6-methyl-morpholin-4-yl]quinoline-8-carbonitrile] | 4 nM
11 | C[C@@H]1CN(c2ccc(C#N)c3ncccc23)C[C@H](CN2Cc3ccc(N4CCNCC4C(F)F)cc3C2)O1 (stereo partly drawn) [Example 76, 5-[(2S,6R)-2-[[5-[2-(difluoromethyl)piperazin-1-yl]isoindolin-2-yl]methyl]-6-methyl-morpholin-4-yl]quinoline-8-carbonitrile] | 4 nM
12 | C[C@@H]1CN(c2ccc(C#N)c3ncccc23)C[C@H](CN2Cc3ccc(N4CC(N)C4)cc3C2)O1 [Example 77, 5-[(2S,6R)-2-[[5-(3-aminoazetidin-1-yl)isoindolin-2-yl]methyl]-6-methyl-morpholin-4-yl]quinoline-8-carbonitrile] | 8 nM
13 | CC1CNCCN1c1ccc2c(c1)CN(C[C@H]1CN(c3ccc(C#N)c4ncccc34)C[C@@H](C)O1)C2 (stereo partly drawn) [Example 78, 5-[(2R,6S)-2-methyl-6-[[5-(2-methylpiperazin-1-yl)isoindolin-2-yl]methyl]morpholin-4-yl] quinoline-8-carbonitrile] | < 3 nM
14 | C[C@@H]1CN(c2ccc(C#N)c3ncccc23)C[C@H](CN2CCc3nc(N4CCNCC4)ccc3C2)O1 [Example 79, 5-[(2R,6S)-2-methyl-6-[(2-piperazin-1-yl-7,8-dihydro-5H-1,6-naphthyridin-6-yl)methyl]morpholin-4-yl]quinoline-8-carbonitrile] | 4 nM
15 | C[C@@H]1CN(c2ccc(C#N)c3ncccc23)C[C@H](CN2Cc3ccc(N4CCNCC4)nc3C2)O1 [Example 80, 5-[(2R,6S)-2-methyl-6-[(2-piperazin-1-yl-5,7-dihydropyrrolo[3,4-b]pyridin-6-yl)methyl]morpholin-4-yl]quinoline-8-carbonitrile] | < 3 nM
16 | C[C@@H]1CN(c2ccc(C#N)c3ncccc23)C[C@H](CN2Cc3ccc(N4CCNC[C@@H]4CO)cc3C2)O1 [Example 82, 5-[(2S,6R)-2-[[5-[(2R)-2-(hydroxymethyl)piperazin-1-yl]isoindolin-2-yl]methyl]-6-methyl-morpholin-4-yl]quinoline-8-carbonitrile] | 14 nM
17 | C[C@@H]1CN(c2ccc(C#N)c3ncccc23)C[C@H](CN2Cc3ccc(N4CCNC[C@H]4CO)cc3C2)O1 [Example 83, 5-[(2S,6R)-2-[[5-[(2S)-2-(hydroxymethyl)piperazin-1-yl]isoindolin-2-yl]methyl]-6-methyl-morpholin-4-yl]quinoline-8-carbonitrile] | 20 nM
18 | C[C@@H]1CN(c2ccc(C#N)c3nccnc23)C[C@H](CNCc2ccc(N3CCNCC3)cc2)O1 [Example 84, 8-[(2R,6S)-2-methyl-6-[[(4-piperazin-1-ylphenyl)methylamino]methyl]morpholin-4-yl]quinoxaline-5-carbonitrile] | 22 nM
19 | C[C@@H]1CN(c2ccc(C#N)c3ncccc23)C[C@H](CNCc2ccc(N3CCNCC3)cc2)O1 [Example 86, 5-[(2R,6S)-2-methyl-6-[[(4-piperazin-1-ylphenyl)methylamino]methyl]morpholin-4-yl] quinoline-8-carbonitrile] | 26 nM
20 | C[C@@H]1CN(c2ccc(C#N)n3nccc23)C[C@H](CN2CCc3cnccc3C2)O1 [Example R1, 4-[(2S,6R)-2-(3,4-dihydro-1H-2,6-naphthyridin-2-ylmethyl)-6-methyl-morpholin-4-yl]pyrazolo[1,5-a]pyridine-7-carbonitrile, reference compound] | 118 nM
21 | C[C@@H]1CN(c2ccc(C#N)n3nccc23)C[C@H](CN2Cc3ccncc3C2)O1 [Example R2, 4-[(2S,6R)-2-(1,3-dihydropyrrolo[3,4-c]pyridin-2-ylmethy1)-6-methyl-morpholin-4-yl]pyrazolo[1,5-a]pyridine-7-carbonitrile, reference compound] | 784 nM
